# pIC50: −log10 of the molar value. Read-outs that look alike come from different tables or passages of the source.
# What was measured:
# estrogen receptor = assay: ERE luciferase assay in T47D-KBluc cells; assay type: cell-based; conditions: Homo sapiens, 24 hours, read-out: ER Target Engagement IC50
# Procedure: 1. ERE Luciferase Assay for Compounds in Table 2
# T47D-1(Bluc cells (ATCC® ECRL 2 65, T47D human breast cancer cells stably transfected with estrogen responsive element/promoter/luciferase reporter gene) were seeded into 96-well white opaque plates in IR: PM growth medium supplemented with 10% fetal bovine serum (FBS) and allowed to adhere overnight in a 37° C. humidified incubator. The following day, cells were treated with PROTACs in a 12-point concentration curve (top final concentration of 300 nM with subsequent concentrations being 3-fold less with […] being the lowest concentration in the assay). Each PROTAC was tested independently in two experiments on 96-well plates. After 24 hours, media was removed and lysis buffer was added to the wells. Following lysis, Bright-Glo™ Luciferase Assay Substrate (Promega, Madison WI) was added and the luciferase activity was measured using a Cytation 3 plate reader (BioTek™, Winooski, VT). Each compound was assayed in duplicate and the activity was calculated as […] using GraphPad Prism software (San Diego, CA).
# [1] = biological target: estrogen receptor-alpha (ERα) (Homo sapiens (Human), UniProt P03372); assay: Estrogen receptor-alpha (ERα) degradation assay in MCF7 cells (In-Cell Western / western blot); assay type: cell-based; conditions: % degraded, read-out: ER Degradation Dmax
# Chain of estrogen receptor-alpha (ERα) (P03372 whole entry): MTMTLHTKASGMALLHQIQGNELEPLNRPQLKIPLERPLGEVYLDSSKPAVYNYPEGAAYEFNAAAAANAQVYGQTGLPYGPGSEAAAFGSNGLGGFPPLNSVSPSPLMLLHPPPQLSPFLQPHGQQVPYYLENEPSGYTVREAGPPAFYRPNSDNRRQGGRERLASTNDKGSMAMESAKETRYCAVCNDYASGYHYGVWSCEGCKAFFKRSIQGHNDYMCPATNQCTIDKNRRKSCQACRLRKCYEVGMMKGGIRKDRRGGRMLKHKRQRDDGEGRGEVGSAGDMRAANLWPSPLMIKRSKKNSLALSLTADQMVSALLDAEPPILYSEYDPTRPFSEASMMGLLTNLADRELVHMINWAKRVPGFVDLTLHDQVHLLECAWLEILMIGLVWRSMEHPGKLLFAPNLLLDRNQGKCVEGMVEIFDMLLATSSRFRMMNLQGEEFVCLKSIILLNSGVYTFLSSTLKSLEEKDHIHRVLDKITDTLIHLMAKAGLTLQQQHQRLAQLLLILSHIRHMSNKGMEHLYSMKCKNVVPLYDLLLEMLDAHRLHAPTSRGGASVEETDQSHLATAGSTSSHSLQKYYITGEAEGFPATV
# Procedure: 2. Estrogen Receptor-Alpha (ERα) Degradation Assay in MCF-7 Cells Using Western Blot Method for Table 5
# The exemplary novel ERα degraders were assessed for their activity in degrading ERα in MCF-7 cells via western blot. The assay was carried out in the presence of 10% FBS or high percentage of human or mouse serum. Protocols of the western blot assay are described below.
# MCF7 cells were grown in DMEM/F12 with 10% FBS and seeded at 24,000 cells per well in 100 μl into 96-well clear tissue culture plates. The following day, the cells were treated with PROTACs in a […] concentration curve with 100 nM being the top concentration and serial dilutions to make the other concentrations (30 nM, 10 nM. 3 nM, 1 nM, and 0.3 nM). At all concentrations, 0.01% DMSO is the final concentration in the well. The following day, the plates are aspirated, washed with 50 μl of cold PBS. The cells are lysed with 50 μl/well 4° C. Cell Lysis Buffer (Catalog #9803; Cell Signaling Technology, Danvers, MA) (20 mM Tris-HCL (pH 7.5), 150 mM NaCl, 1 mM Na2EDTA, 1 mM EGTA, 1% Triton, 2.5 mM sodium pyrophosphate, 1 mM B-glycerophosphate, 1 mM sodium vanadate, 1 μg/ml leupeptin). Lysates were clarified at 16,000× g for 10 minutes, and 2 μg of protein was subjected to SDS-PAGE analysis and followed by immunoblotting according to standard protocols. The antibodies used were ERα (Cell Signaling, Technologies Catalog #8644), and Tubulin (Sigma Catalog #T9026; St. Louis, MO). Detection reagents were Clarity Western ECL substrate (Bio-Rad Catalog 4170-5060; Hercules, CA).
# Alternatively, MCF7 cells were grown in DMEM/F12 with 10% FBS and seeded at 24,000 cells per well in 500 μl in 24-well clear tissue culture plates. The following day, the cells were treated with PROTACs in a 5-point concentration curve (100 nM, 33 nM, 11 nM, 3.7 nM, and 1.2 nM) in the presence of 0.01% DMSO. After 72 hours, the wells are aspirated and washed with 500 μl of PBS. The cells are lysed with 100 μl/well 4° C. Cell Lysis Buffer (Catalog #9803; Cell Signaling Technology, Danvers, MA) (20 mM Tris-HCL (pH 7.5), 150 mM NaCl, 1 mM Na2EDTA, 1 mM EGTA, 1% Triton, 2.5 mM sodium pyrophosphate, 1 mM B-glycerophosphate, 1 mM sodium vanadate, 1 ug/ml leupeptin). Lysates were clarified at 16,000× g for 10 minutes, and 2 μg of protein was subjected to SDS-PAGE analysis and followed by immunoblotting according to standard protocols. The antibodies used were ERα (Cell Signaling Technologies Catalog #8644), and Tubulin (Sigma Catalog #T9026; St. Louis, MO). Detection reagents were Clarity Western ECL substrate (Bio-Rad Catalog 4170-5060; Hercules, CA).
# 3. Estrogen receptor-alpha (ERα) degradation assay using In-Cell Western™ Assay for Table 5
# Degradation of ERα by claimed compounds were determined in MCF7 cells using an In-Cell Western™ assay. Briefly, MCF7 cells were plated in 96-well plates (2000 cells per well in 100 μl media) and incubated at 37° C. under an atmosphere of 5% CO2 in a humidified incubator overnight. One-hundred (100) μl of media containing test compound (at 2× concentration) was added to the appropriate wells to provide 11 serially decreasing concentrations (top final concentration, 1 μM then 3-fold less for the next 10 concentrations); a vehicle control (DMSO) was also added for each compound. For each experiment, all compounds were assayed in duplicate plates. Cells were then incubated for 3 or 5 days in the above-mentioned environment. The assay was terminated by removal of media, a single wash with ice-cold PBS and the addition of […] paraformaldehyde (PFA: 4% in PBS). After 15 minutes in PFA at room temperature, the cells were permeabilized in Tris-phosphate-buffered saline with Tween (0.1%) (TBST) supplemented with Triton X-100 (0.5%) for 15 minutes. Cells were then blocked in BSA (TBST with BSA, 3%) for one hour. […] The cells were incubated overnight at 4° C. […]
SMILES,pIC50 (estrogen receptor),Dmax ([1]; 5 day incubation),Dmax ([1]; 3 day incubation)
"O=C1CCC(n2ncc(N3CCN(CCCCCOc4ccc([C@@H]5c6ccc(O)cc6CC[C@@H]5c5ccccc5)cc4)CC3)cc2=O)C(=O)N1 (mixture of isomers) [PROTAC-100, rac-3-(4-(4-(5-(4-((1R,2S)-6-hydroxy-2-phenyl-1,2,3,4-tetrahydronaphthalen-1-yl)phenoxy)pentyl)piperazin-1-yl)-6-oxopyridazin-1(6H)-yl)piperidine-2,6-dione]",8.00 to 9.00,50 to 75%,
"O=C1CCC(n2ncc(Oc3ccc(O[C@@H]4CCN(CCOc5ccc([C@@H]6c7ccc(O)cc7CC[C@@H]6c6ccc(F)cc6)cc5)C4)nc3)cc2=O)C(=O)N1 (stereo partly drawn) [PROTAC-103, 3-(4-((6-(((R)-1-(2-(4-((1R,2S)-2-(4-fluorophenyl)-6-hydroxy-1,2,3,4-tetrahydronaphthalen-1-yl)phenoxy)ethyl)pyrrolidin-3-yl)oxy)pyridin-3-yl)oxy)-6-oxopyridazin-1(6H)-yl)piperidine-2,6-dione]",> 9.00,,≤ 50%
"O=C1CCC(n2ncc(Oc3ccc(O[C@H]4CCN(CCOc5ccc([C@H]6c7ccc(O)cc7CC[C@H]6c6ccc(F)cc6)cc5)C4)nc3)cc2=O)C(=O)N1 (mixture of isomers) [PROTAC-93, rac-3-(4-((6-(((R)-1-(2-(4-((1R,2S)-2-(4-fluorophenyl)-6-hydroxy-1,2,3,4-tetrahydronaphthalen-1-yl)phenoxy)ethyl)pyrrolidin-3-yl)oxy)pyridin-3-yl)oxy)-6-oxopyridazin-1(6H)-yl)piperidine-2,6-dione]",7.00 to 8.00,,≤ 50%
"O=C1CCC(n2cc(-c3ccc(N4CCN(CCCOc5ccc([C@@H]6c7ccc(O)cc7CC[C@@H]6c6ccccc6)cc5)CC4)cc3)cn2)C(=O)N1 (mixture of isomers) [PROTAC-110, rac-3-(4-(4-(4-(3-(4-((1R,2S)-6-hydroxy-2-phenyl-1,2,3,4-tetrahydronaphthalen-1-yl)phenoxy)propyl)piperazin-1-yl)phenyl)-1H-pyrazol-1-yl) piperidine-2,6-dione]",> 9.00,50 to 75%,
"O=C1CCC(n2cnc(N3CCN(CCCCCOc4ccc([C@@H]5c6ccc(O)cc6CC[C@@H]5c5ccccc5)cc4)CC3)cc2=O)C(=O)N1 (mixture of isomers) [PROTAC-101, rac-3-(4-(4-(5-(4-((1R,2S)-6-hydroxy-2-phenyl-1,2,3,4-tetrahydronaphthalen-1-yl)phenoxy)pentyl)piperazin-1-yl)-6-oxopyrimidin-1(6H)-yl)piperidine-2,6-dione]",8.00 to 9.00,50 to 75%,
"O=C1CCC(n2ncc(Oc3ccc(N4CCN(CCOc5ccc([C@@H]6c7ccc(O)cc7CC[C@@H]6c6ccc(F)cc6)cc5)CC4)nc3)cc2=O)C(=O)N1 (mixture of isomers) [PROTAC-96, rac-3-(4-((6-(4-(2-(4-((1R,2S)-2-(4-fluoro-phenyl)-6-hydroxy-1,2,3,4-tetrahydro-naphthalen-1-yl)phenoxy)ethyl)piperazin-1-yl)pyridin-3-yl)oxy)-6-oxopyridazin-1(6H)-yl)piperidine-2,6-dione]",> 9.00,,≤ 50%
"O=C1CCC(n2ncc(Oc3ccc(O[C@H]4CCN(CCOc5ccc([C@@H]6c7ccc(O)cc7CC[C@@H]6c6ccc(F)cc6)cc5)C4)nc3)cc2=O)C(=O)N1 (mixture of isomers) [PROTAC-94, rac-3-(4-((6-(((R)-1-(2-(4-((1S,2R)-2-(4-fluorophenyl)-6-hydroxy-1,2,3,4-tetrahydronaphthalen-1-yl)phenoxy)ethyl)pyrrolidin-3-yl)oxy)pyridin-3-yl)oxy)-6-oxopyridazin-1(6H)-yl)piperidine-2,6-dione]",> 9.00,,≤ 50%
"O=C1CCC(n2ncc(Oc3ccc(CCCCOc4ccc([C@@H]5c6ccc(O)cc6CC[C@@H]5c5ccc(F)cc5)cc4)nc3)cc2=O)C(=O)N1 (mixture of isomers) [PROTAC-98, rac-3-(4-((6-(4-(4-((1R,2S)-2-(4-fluorophenyl)-6-hydroxy-1,2,3,4-tetrahydro-naphthalen-1-yl)phenoxy)butyl)pyridin-3-yl)oxy)-6-oxopyridazin-1(6H)-yl)piperidine-2,6-dione]",8.00 to 9.00,≤ 50%,
Cc1nc2c(NCCN3CCN(CCOc4ccc(Oc5c(-c6ccc(Br)cc6)sc6cc(O)ccc56)cc4)CC3)cccc2c(=O)n1C1CCC(=O)NC1=O (stereo not shown) [PROTAC-107],7.00 to 8.00,,≤ 50%
"O=C1CCC(N2CC(c3ccc(N4CCN(CC5CCN(c6ccc([C@@H]7c8ccc(O)cc8CC[C@@H]7c7ccccc7)cc6)CC5)CC4)cc3)=CC2=O)C(=O)N1 (stereo partly drawn) [PROTAC-89, 3-[3-[4-[4-[[1-[4-[(1R,2S)-6-hydroxy-2-phenyl-tetralin-1-yl]phenyl]-4-piperidyl]methyl]piperazin-1-yl]phenyl]-5-oxo-2H-pyrrol-1-yl]piperidine-2,6-dione]",8.00 to 9.00,> 75%,
"O=C1CCC(n2ncc(N3CCN(CC4CCN(c5ccc([C@@H]6c7ccc(O)cc7CC[C@@H]6c6ccccc6)cc5)CC4)CC3)cc2=O)C(=O)N1 (stereo partly drawn) [PROTAC-102, 3-[4-[4-[[1-[4-[(1R, 2 S)-6-hydroxy-2-phenyl-tetralin-1-yl]phenyl]-4-piperidyl]methyl]piperazin-1-yl]-6-oxo-pyridazin-1-yl]piperidine-2,6-dione]",8.00 to 9.00,> 75%,
"O=C1CCC(n2ncc(Oc3ccc(O[C@@H]4CCN(CCOc5ccc([C@H]6c7ccc(O)cc7CC[C@H]6c6ccc(F)cc6)cc5)C4)nc3)cc2=O)C(=O)N1 (mixture of isomers) [PROTAC-97, rac-3-(4-((6-(((R)-1-(2-(4-((1S,2R)-2-(4-fluorophenyl)-6-hydroxy-1,2,3,4-tetrahydronaphthalen-1-yl)phenoxy)ethyl)pyrrolidin-3-yl)oxy)pyridin-3-yl)oxy)-6-oxopyridazin-1(6H)-yl)piperidine-2,6-dione]",7.00 to 8.00,,≤ 50%
"O=C1CCC(n2cc(-c3ccc(N4CCN(CCCOc5ccc([C@@H]6c7ccc(O)cc7CC[C@@H]6c6ccccc6)cc5)CC4)nc3)cn2)C(=O)N1 (mixture of isomers) [PROTAC-111, rac-3-(4-(6-(4-(3-(4-((1R,2S)-6-hydroxy-2-phenyl-1,2,3,4-tetrahydronaphthalen-1-yl)phenoxy)propyl)piperazin-1-yl)pyridin-3-yl)-1H-pyrazol-1-yl) piperidine-2,6-dione]",> 9.00,≤ 50%,
"O=C1CCC(n2ncc(Oc3ccc(CCCCCOc4ccc([C@@H]5c6ccc(O)cc6CC[C@@H]5c5ccc(F)cc5)cc4)nc3)cc2=O)C(=O)N1 (mixture of isomers) [PROTAC-99, rac-3-(4-((6-(5-(4-((1R,2S)-2-(4-fluorophenyl)-6-hydroxy-1,2,3,4-tetrahydro-naphthalen-1-yl)phenoxy)pentyl)pyridin-3-yl)oxy)-6-oxopyridazin-1(6H)-yl)piperidine-2,6-dione]",7.00 to 8.00,≤ 50%,
